{"source": "patent US7622494B2", "about": "“Chemical compounds” (SmithKline Beecham Corporation, priority 2003, dated 2009)", "note": "Counter-ions that a name gives are not always drawn.", "data": [{"test_system": "episomal HPV-16 DNA in W12-20850 cells", "assay": "W-12 cellular assay (hybrid capture quantification of episomal HPV-16 DNA)", "format": "cell-based, HPV16", "conditions": "Human papillomavirus 16, 96 h; W12-20850 cells, four days incubation, episomal HPV-16 DNA by hybrid capture, inhibition relative to untreated control cells; read-out: W-12", "procedure": "(§1) Compounds of the current invention are believed useful in the treatment and/or prophylaxis of conditions and diseases associated with HPV infection. Activity mediated through HPV was determined using the following W-12 cellular assay.\n(§2) The W12 cell line used contains HPV16 DNA and was derived from a low-grade cervical dysplasia tissue by Margaret Stanley and subsequently clonally selected by Paul Lambert (University of Wisconsin). One of these clones, W12-20850, contains 1000 copies of episomal HPV16 DNA and was used in the cell-based assay. W12-20850 cells were routinely cultured with a gamma-irradiated (6000 rads) feeder layer of 3T3 cells. Assays, however, were run in the absence of a 3T3 feeder layer. W12-20850 and 3T3 cells were routinely split when they were sub-confluent. W12-20850 were grown in W12 Medium which is constituted of 25% DMEM (Gibco BRL, Cat # 12430-047), 75% F12 Media (Gibco BRL, Cat # 11765-021) and 2.5% FBS. The additives include […] Adenine (Sigma, Cat # A-9795), […] Hydrocortisone (Calbiochem, Cat # 386698); 5.0 mg/ml Bovine Insulin (Sigma, Cat # I-1882), 8.4 ng/ml cholera toxin (Fluka, Cat # 26694) and 10 ng/ml EGF (Invitrogen, Cat # 13247-051). 3T3 cells were grown in DMEM containing 10% FBS. Cell lines were incubated at 37° C., in the presence of 5% CO2.\n(§3) For the assay, W12-20850 cells were seeded into a 96 well plate-containing compound. Plates were incubated at 37° C. in the presence of 5% CO2, for four days. On the fourth day, cells were lysed and the amount of episomal. HPV-16 DNA was quantified using a non-radioactive hybrid capture technique with HPV-16 specific capture and detection probes. The percent inhibition relative to untreated control cells' was then determined.\n(§4) The hybrid capture assay is run in a 96 well plate format. Hybridization plates (Nunc Maxisorb Cat # 450320) were coated with a mixture of capture probe and ReactiBind solution for at least 4 hours and then washed with 0.2×SSC, 0.05% Tween20 (SSCT) prior to blocking with […] of 0.2 N NaOH, 1% Igepal, 10 mg/ml hsDNA for 6-8 hours. The hybridization was carried out by mixing 27 μl of lysed cells with 45 μl of denatured detection probe in 6M guanidine isothiocyanate. To prevent evaporation, 50 μl of mineral oil was added to each well. The plate was then heated to 90° C. for 6.5 minutes and the hybridization continued at 42° C. overnight. Assay plates were washed 6 times with SSC/T. Anti-digoxigenin HRP-conjugated Ab (Boehringer Mannheim 1207733, 1:5000) was incubated in the wells for 30 min at room temperature and washed with PBS/0.05% Tween-20. SuperSignal LBA substrate (Pierce Cat # 37070) was added, and chemiluminescence was measured using Wallac 1420 Victor plate reader.", "units": {"IC50": "nM"}, "values": [{"smiles": "C[C@@H](N[C@H]1CCc2c1[nH]c1ccc(Br)cc21)c1ccccc1", "note": "[Example 52, (3S)-7-Bromo-N-[(1R)-1-phenylethyl]-1,2,3,4-tetrahydrocyclobenta[b]indol-3-amine hydrochloride salt]", "IC50": 29000}, {"smiles": "Cc1ccc2[nH]c3c(c2c1)CCCC3NC1Cc2ccccc2C1", "note": "(centres unmarked) [Example 41, N-(2.3-Dihydro-1H-inden-2-yl)-6-methyl-2,3,4,9-tetrahydro-1H-carbazol-1-amine hydrochloride-salt]", "IC50": 400}, {"smiles": "Brc1ccc2[nH]c3c(c2c1)CCC3NCCc1ccccc1", "note": "(centres unmarked) [Example 50, 7-Bromo-N-(2-phenylethyl)-1,2,3,4-tetrahidrocyclopenta[b]indol-3-amine hydrochloride salt]", "IC50": 11000}, {"smiles": "COC(=O)NC1CCCc2c1[nH]c1ccc(Br)cc21", "note": "(centres unmarked) [Example 66, Methyl 6-bromo-2,3,4,9-tetrahydro-1H-carbazol-1-ylcarbamate]", "IC50": 165}, {"smiles": "Brc1ccc2[nH]c3c(c2c1)CCC[C@@H]3NC1Cc2ccccc2C1", "note": "[Example 28, (1S)-6-Bromo-N-(2.3-dihydro-1H-inden-2-yl)-2,3,4,9-tetrahydro-1H-carbazol-1-amine hydrochloride salt]", "IC50": 3700}, {"smiles": "CS(=O)(=O)NC1CCCc2c1[nH]c1ccc(Br)cc21", "note": "(centres unmarked) [Example 69, N-(6-Bromo-2,3,4,9-tetrahydro-1H-carbazol-1-yl)methanesulfonamide]", "IC50": 2300}, {"smiles": "NC(=O)NC1CCCc2c1[nH]c1ccc(Br)cc21", "note": "(centres unmarked) [Example 70, N-(6-Bromo-2,3,4,9-tetrahydro-1H-carbazol-1-yl)urea]", "IC50": 10300}, {"smiles": "Brc1ccc2[nH]c3c(c2c1)CCCC3OCc1ccccc1", "note": "(centres unmarked) [Example 64, 6-Bromo-1-[(phenylmethyl)oxy]-2,3,4,9-tetrahydro-1H-carbazole]", "IC50": 95}, {"smiles": "Brc1ccc2c3c([nH]c2c1)C(NC1Cc2ccccc2C1)CCC3", "note": "(centres unmarked) [Example 63, 7-Bromo-N-(2.3-dihydro-1H-inden-2-yl)-2,3,4,9-tetrahydro-1H-carbazol-1-amine hydrochloride]", "IC50": 3900}, {"smiles": "Brc1ccc2[nH]c3c(c2c1)CCCCC3NCCc1ccccc1", "note": "(centres unmarked) [Example 56, 2-Bromo-N-(2-phenylethyl)-5,6,7,8,9,10-hexahydrocycloheDta[b]indol-6-amine hydrochloride]", "IC50": 774}, {"smiles": "O=C(NC1CCCc2c1[nH]c1ccc(Br)cc21)C1CCCCC1", "note": "(centres unmarked) [Example 68, N-(6-Bromo-2,3,4,9-tetrahydro-1H-carbazol-1-yl)cyclohexanecarboxamide]", "IC50": 380}, {"smiles": "C[C@@H](CCc1ccccc1)NC1CCCc2c1[nH]c1ccccc21", "note": "(stereo partly drawn) [Example 24, N-[(1S)-1-Methyl-3-Phenylpropyl]-2,3,4,9-tetrahydro-1H-carbazol-1-aminehydrochloride salt]", "IC50": 5300}, {"smiles": "CC(C)NC(=O)NC1CCCc2c1[nH]c1ccc(Br)cc21", "note": "(centres unmarked) [Example 65, N-(6-Bromo-2,3,4,9-tetrahydro-1H-carbazol-1-yl)-N′-isopropylurea]", "IC50": 5000}]}, {"test_system": "episomal HPV-16 DNA in W12-20850 cells", "assay": "W-12 cellular assay (hybrid capture quantification of episomal HPV-16 DNA)", "format": "cell-based, HPV16", "conditions": "Human papillomavirus 16, W12-20850, 96 h, read-out: W-12", "procedure": "as §1, §2, §3, §4", "units": {"IC50": "nM"}, "values": [{"smiles": "Cc1ccc2[nH]c3c(c2c1)CCC[C@H]3N[C@@H](C)c1ccccc1", "note": "[Example 47, (1R)-6-Methyl-N-[(1S)-1-phenylethyl]-2,3,4,9-tetrahydro-1H-carbazol-1-amine hydrochloride salt]", "IC50": 160}, {"smiles": "COCCNC1CCCc2c1[nH]c1ccccc21", "note": "(centres unmarked) [Example 22, N-(2-Methoxyethyl)-2,3,4,9-tetrahydro-1H-carbazol-1-amine hydrochloride salt]", "IC50": 47000}, {"smiles": "Brc1ccc2[nH]c3c(c2c1)CCCC3NCc1ccccc1", "note": "(centres unmarked) [Example 29, N-Benzyl-6-bromo-2,3,4,9-tetrahydro-1H-carbazol-1-amine hydrochloride salt]", "IC50": 115}, {"smiles": "C[C@@H](CNC1CCCc2c1[nH]c1ccc(Br)cc21)c1ccccc1", "note": "(stereo partly drawn) [Example 39, 6-Bromo-N-[(2R)-2-phenylpropyl]-2,3,4,9-tetrahydro-1H-carbazol-1-amine hydrochloride salt]", "IC50": 160}, {"smiles": "Brc1ccc2[nH]c3c(c2c1)CCCCC3NCc1ccccc1", "note": "(centres unmarked) [Example 54, N-Benzyl-2-bromo-5,6,7,8,9,10-hexahydrocyclohepta[b]indol-6-amine hydrochloride]", "IC50": 1100}, {"smiles": "COc1ccc(CNC2CCCc3c2[nH]c2ccccc32)cc1", "note": "(centres unmarked) [Example 16, N-(4-Methoxybenzyl)-2,3,4,9-tetrahydro-1H-carbazol-1-amine hydrochloride salt]", "IC50": 1500}, {"smiles": "c1ccc2c3c([nH]c2c1)C(NC1CCCCC1)CCC3", "note": "(centres unmarked) [Example 19, N-Cyclohexyl-2,3,4,9-tetrahydro-1H-carbazol-1-amine hydrochloride salt]", "IC50": 14500}, {"smiles": "C[C@@H](N[C@H]1CCCc2c1[nH]c1ccc(Br)cc21)c1ccccc1", "note": "[Example 32, (1S)-6-Bromo-N-[(1R)-1-Phenylethyl]-2,3,4,9-tetrahydro-1H-carbazol-1-amine hydrochloride salt]", "IC50": 525}, {"smiles": "Brc1ccc2c3c([nH]c2c1)C(NCc1ccccc1)CCC3", "note": "(centres unmarked) [Example 61, N-Benzyl-7-bromo-2,3,4,9-tetrahydro-1H-carbazol-1-amine hydrochloride]", "IC50": 11000}, {"smiles": "FC(F)(F)c1ccc2[nH]c3c(c2c1)CCCC3NCc1ccccc1", "note": "(centres unmarked) [Example 58, N-Benzyl-6-(trifluoromethyl)-2,3,4,9-tetrahydro-1H-carbazol-1-amine hydrochloride]", "IC50": 1000}, {"smiles": "C[C@@H](NC1CCCc2c1[nH]c1ccc(Br)cc21)c1ccccc1", "note": "(stereo partly drawn) [Example 30, 6-Bromo-N-[(1R)-1-phenylethyl]-2,3,4,9-tetrahydro-1H-carbazol-1-amine hydrochloride salt]", "IC50": "< 200"}, {"smiles": "CC(C)(NC1CCCc2c1[nH]c1ccc(Br)cc21)c1ccccc1", "note": "(centres unmarked) [Example 33, 6-Bromo-N-(1-methyl-1-phenylethyl)-2,3,4,9-tetrahydro-1H-carbazol-1-amine hydrochloride salt]", "IC50": 750}, {"smiles": "Brc1ccc2[nH]c3c(c2c1)CCCC3NCCc1ccccc1", "note": "(centres unmarked) [Example 26, 6-Bromo-N-(2-phenylethyl)-2,3,4,9-tetrahydro-1H-carbazol-1-amine hydrochloride salt]", "IC50": 410}, {"smiles": "C[C@@H](NC1CCCc2c1[nH]c1ccc([N+](=O)[O-])cc21)c1ccccc1", "note": "(stereo partly drawn) [Example 49, 6-Nitro-N-[(1R)-1-phenylethyl]-2,3,4,9-tetrahydro-1H-carbazol-1-amine hydrochloride salt]", "IC50": 83}, {"smiles": "C[C@@H](NC1CCCc2c1[nH]c1cc(Br)ccc21)c1ccccc1", "note": "(stereo partly drawn) [Example 62, 7-Bromo-N-[(1R)-1-phenylethyl]-2,3,4,9-tetrahydro-1H-carbazol-1-amine hydrochloride]", "IC50": 8000}, {"smiles": "C[C@H](N[C@H]1CCCc2c1[nH]c1ccc(Br)cc21)c1ccccc1", "note": "[Example 35, (1S)-6-Bromo-N-[(1S)-1-phenylethyl]-2,3,4,9-tetrahydro-1H-carbazol-1-amine hydrochloride salt]", "IC50": 3000}, {"smiles": "OC[C@H](NC1CCCc2c1[nH]c1ccccc21)c1ccccc1", "note": "(stereo partly drawn) [Example 23, (2R)-2-Phenyl-2-(2,3,4,9-tetrahydro-1H-carbazol-1-ylamino)ethanol hydrochloride salt]", "IC50": 30000}, {"smiles": "Cc1ccc2[nH]c3c(c2c1)CCCC3N[C@@H](C)c1ccccc1", "note": "(stereo partly drawn) [Example 45, 6-Methyl-N-[(1S)-1-phenylethyl]-2,3,4,9-tetrahydro-1H-carbazol-1-amine hydrochloride salt]", "IC50": 7000}, {"smiles": "Cc1ccc2[nH]c3c(c2c1)CCC[C@@H]3N[C@H](C)c1ccccc1", "note": "[Example 44, (1S)-6-Methyl-N-[(1R)-1-phenylethyl]-2,3,4,9-tetrahydro-1H-carbazol-1-amine hydrochloride salt]", "IC50": 8400}, {"smiles": "Cc1ccc2[nH]c3c(c2c1)CCCC3N[C@H](C)c1ccccc1", "note": "(stereo partly drawn) [Example 42, 6-Methyl-N-[(1R)-1-phenylethyl]-2,3,4,9-tetrahydro-1H-carbazol-1-amine hydrochloride salt]", "IC50": 540}, {"smiles": "Brc1ccc2[nH]c3c(c2c1)CCCC3NC(c1ccccc1)c1ccccc1", "note": "(centres unmarked) [Example 60, N-Benzhydryl-6-bromo-2,3,4,9-tetrahydro-1H-carbazol-1-amine hydrochloride]", "IC50": 14}, {"smiles": "Cc1ccc2[nH]c3c(c2c1)CCC[C@H]3N[C@H](C)c1ccccc1", "note": "[Example 43, hydrochloride salt]", "IC50": 240}]}]}
